In patent US12291494B2, “Methods of treating fibrosis” (Nogra Pharma Limited, priority 2012, dated 2025):
Entries after “also recorded” stand apart in the source; their conditions may differ.

Key:
[1] = tested on: C57bl6 mice; assay: DSS intestinal fibrosis study: inflammation level by histology (May-Grunwald-Giemsa); assay type: in vivo; conditions: colon, MGG staining; DSS vehicle 3.77±0.80, control 0.50±0.33
Method: Rings of the transverse part of the colon were sampled (post mortem) and fixed in 4% formaldehyde and embedded in paraffin for histological analysis. Sections (4 μm) were stained with May-Grunwald-Giemsa and a multiparametric histological scoring (0 to 18) was performed blindly by two investigators. This staining allowed the quantification of inflammation. Histological grades, reflecting the inflammation level, were assigned based on the intensity of cellular infiltrate in the mucosa, its extension in sub-mucosa layers and the presence of epithelial lesions (see Table 5).

[2] = tested on: CTGF; assay: DSS intestinal fibrosis study: Western blot of colon, CTGF; assay type: in vivo, mice; conditions: whole colon, OD normalized with GAPDH, expressed as percentage of control groups; DSS 115.1 ± 16.88; listed as GED
Method: (§1) For the Western blot analysis, 0.5 cm of frozen colonic samples were homogenized in RIPA Buffer containing 50 mM Tris HCl pH 7.6, 150 mM NaCl, 1.5 mM MgCl2, 5 mM EDTA, 1% Triton-X and 10% Glycerol, supplemented with 100 mM Sodium Fluoride (NaF), 2 mM Sodium Orthovanadate (Na3VO4), 10 mM Sodium Pyrophosphate (NaPPi), 1 mM phenylmethanesulphone (PMSF) and a classical protease-inhibitor cocktail containing 10 μg/mL Leupeptin and Aprotinin.
(§2) For each sample, 30 μg of protein was separated by PAGE and electroblotted. Nitrocellulose membranes (100% pure) were incubated (according with a specific protocol for each antibody) with primary antibodies directed against CTGF, Collagen-I and GAPDH (purchased from Abcam, Cambridge, UK; 1:1000 for 2 h at RT), diluted in 5% non-fat milk in 0.1% TBS-t. […] Optical density of target bands was determined using a computer-assisted densitometer and the ImageJ public domain software (W. S., Rasband, ImageJ, U. S. National Institutes of Health, Bethesda, MD; http://rsb.info.nih.gov/ij/, 1997-2011). Tissue levels were expressed as units of Optical Density (OD) per quantity of total proteins, normalized with internal control GAPDH and the results were expressed as percentage of control groups.

[3] = tested on: IL-13; assay: DSS intestinal fibrosis study: Western blot of colon, IL-13; assay type: in vivo, mice; conditions: whole colon, OD normalized with GAPDH, expressed as percentage of control groups; DSS 189.5 ± 28.71; listed as GED
Method: as §1, §2

[4] = tested on: C57BL/6 mice; assay: DSS chronic colitis (Ex. 7): macroscopic colonic findings; assay type: in vivo
Method: Finally, seven days after the last DSS cycle administration, the animals of each group were sacrificed by cervical dislocation under deep CO2 anaesthesia and undergone to laparotomy. The colon were visualized and rapidly excised. The length of the whole colon-rectum and the weight of the distal 8 cm of colon-rectum were measured.
The macroscopic colonic lesions including dilation, thickness and stenosis were scored by an independent observer, unaware of the mice treatment. Tissue specimens from the colon were dissected and immediately frozen or fixed in fresh 4% formaldehyde (FA)/PBS solution for 3 h at room temperature followed by the standard procedure for paraffin embedding. Paraffin embedded tissues transversally sectioned at 3 μm were subject to Hematoxylin/Eosin staining, to assess the inflammatory degree, and Masson trichrome to better assess connective tissue and fibrosis. The stained sections were then blindly observed under an Olympus BX51 Light Microscope (Olympus, Optical Co. Ltd., Tokyo, Japan) by two pathologists which have performed the histological score evaluating: i. presence of ulcers (0=absent, 1=little ulcers, 2=big ulcers); ii. the inflammatory degree (0=absent 1=mild, 2=moderate and 3=severe); iii. depth of lesions (0=absent, 1=lesions extending in the submucosa, 2=lesions in the muscolarispropria and 3=lesions in the serosa); iv. degree of fibrosis (0=absent 1=mild, 2=moderate and 3=severe). The degree of intestinal inflammation was assessed according to the density and extent of chronic inflammatory infiltrate, loss of goblet cells, and bowel wall thickening. A total microscopic score will be obtained as sum of all scores (maximum score possible=[…]).
At no stage frank rectal bleeding or rectal prolapse were observed. The mice were sacrificed on day 15 and day 30, respectively, and the colon was subjected to macroscopic evaluation by measuring of colon weight (referred to the last 8 cm of the distal large bowel) and colon length and by observing the presence of adhesions, strictures, dilatation, thickness that was scored as 0 if absent; 1 if mild or moderate; and 2 if severe. The total macroscopic score was calculated as sum of all these score.

[5] = tested on: C57BL/6 mice; assay: DSS chronic colitis (Ex. 7): microscopic colonic lesions (H&E, Masson's trichrome); assay type: in vivo
Method: The macroscopic colonic lesions including dilation, thickness and stenosis were scored by an independent observer, unaware of the mice treatment. Tissue specimens from the colon were dissected and immediately frozen or fixed in fresh 4% formaldehyde (FA)/PBS solution for 3 h at room temperature followed by the standard procedure for paraffin embedding. Paraffin embedded tissues transversally sectioned at 3 μm were subject to Hematoxylin/Eosin staining, to assess the inflammatory degree, and Masson trichrome to better assess connective tissue and fibrosis. […] The degree of intestinal inflammation was assessed according to the density and extent of chronic inflammatory infiltrate, loss of goblet cells, and bowel wall thickening. […]
Intestinal fibrosis was scored as absent, mild, or severe, depending on the density and extent of trichrome-positive connective tissue staining and disruption of tissue architecture.

[6] = tested on: main markers of fibrosis (Collagen I-III, α-SMA, TGF-β1, Smad3, CTGF); assay: DSS chronic colitis (Ex. 7): immunohistochemistry of colon; assay type: in vivo, mice; conditions: DSS+GED vs DSS, listed as GED
Method: Tissue specimens from the colon, dissected and fixed in fresh 4% formaldehyde (FA)/PBS solution for 3 hours at room temperature, were dehydrated in a graded ethanol series, and embedded in low-temperature-fusion paraffin. 3-μm-thick sections were incubated in a solution of methanol and 3% hydrogen peroxide for 45 min.
Samples were incubated overnight with specific antibodies against α-smooth muscle actin (α-SMA, Abcam), collagen types I-III (Abcam), TGF-β1 (Abcam), connective tissue growth factor (CTGF) (Abcam), pSmad3 and Smad3 (Cell Signaling), Smad7 (Imgenex) PPARγ (Cell Signaling). The samples were washed 5 min with PBS and incubated with streptavidin-biotin-peroxidase conjugated secondary antibody (Dako LSAB Corporation, cod K0675, Dako-Cytomation, Milano). After one wash in PBS for 10 min the sections are subject to incubation with 3,3-diaminobenzidine-tetrahydrochloride for 1-3 min. The counterstaining of nuclei was obtained by Hematoxilin Eosin. The specificity of immune reaction was effected keeping off the primary antibodies. Finally the samples were stained with hematoxylin of Mayer and observed under the Olympus BX51 Light Microscope (Olympus, Optical Co. Ltd., Tokyo, Japan).

[7] = chronic DSS colitis, GED 30 mg/kg oral daily, mean ± SEM

In the case of COC(Cc1ccc(N)cc1)C(=O)O (racemic) [Compound 34, (±)-2-methoxy-3-(4′-aminophenyl) propionic acid], the “inflammation level, histological score (0 to 18)” value [1] was 2.18±0.48, the “CTGF (Western blot)” value [2] was 55.75±17.53 and the “IL-13 (Western blot)” value [3] was 88.88±14.01. The “reduction respect to the profibrotic effect of DSS (colon ratio weight/size)” value ([4]; Ex. 7, GED 30 mg/kg oral daily) was 26%, the “ratio weight/size of the colon” value ([4]; Ex. 7, GED 30 mg/kg oral daily, DSS 44.98±6.31, control 20.11±3.91) was 38.13±7.82 and the “Adhesions (score 0-2)” value [4, 7] was 0.12 ± 0.1^¥¥. The Colon length [4, 7] was 7.092 ± 0.16**/ ^, the “Colon weight/body weight ratio” value [4, 7] was 0.27 ± 0.012**/^¥¥ and the “Dilation (score 0-2)” value [4, 7] was 1.12 ± 0.185**/^¥¥. The “Stenosis (score 0-2)” value [4, 7] was 0.32 ± 0.114**/^¥, the “Thickness (score 0-2)” value [4, 7] was 0.48 ± 0.108**/^¥ and the Total macroscopic score ([4]; chronic DSS colitis, GED 30 mg/kg oral daily, mean ± SEM, DSS 3.112 ± 0.31) was 2.02 ± 0.26**/^¥¥. For the same compound, the Colon weight ([4]; distal 8 cm of colon-rectum, chronic DSS colitis, GED 30 mg/kg oral daily, mean ± SEM) was 0.269 ± 0.007 ^, the “intestinal wall architecture (H&E, Masson's trichrome)” value ([5]; FIG. 12 legend, result in words) was “restoring of normal intestinal wall architecture” and the “Total microscopic score (maximum 10)” value ([5]; daily oral GED, DSS 6.45±0.82, FIG. 12) was 3.36±0.55. For the same compound, the “Collagen I-III and α-SMA (immunohistochemistry)” value ([6]; FIG. 13A, 13B) was “marked reduction; also recorded: significant reduction” and the “TGF-β1, Smad, CTGF (immunohistochemistry)” value ([6]; FIG. 15 / data not shown) was “marked reduction; also recorded: significant reduction”.
